Entries after “also recorded” stand apart in the source; their conditions may differ.
Assays:
[1] = tested on: viruses, immune response, leukemic lymphocytes; details: cited from earlier work
mouse spleen cells = assay: PHA mitogen-induced lymphocyte proliferation using murine spleen cells (in vitro); format: cell-based; details: for Cpm Incorp. +PHA: with PHA; for Cpm Incorp. -PHA: without PHA
Source text: 1. Mitogen induced lymphocyte proliferation using murine spleen cells (in vitro).

[2] = Chemical stability at varying pH, conversion to NPT 15392 (HPLC); format: physicochemical; details: for degraded at 3.5 h, 360 µM: 3.5 hours incubation at 37° C., 0.36 μm/ml; for Chemical stability (in words): 37° C., neutral pH
Procedure: Compound (conc.) % of NPT 15392*
*3.5 hours incubation at 37° C., determined using HPLC

[3] = tested on: IgM antibody production to sheep red blood cells; assay: IgM antibody formation in SRBC-immunized Balb/c mice (immunoplaque assay, in vivo); details: for Immunomodulating (in vivo) IgM formation (in words): SRBC immunized mice
Procedure: 4. Enhancement of IgM antibody formation in mice immunized with sheep red blood cells (SRBC) (in vivo).
4. NPT 15457 and NPT 15458 and the "active" drug, NPT 15392, were given to Balb/c mice who had been immunized with sheep red blood cells SRBC. Antibody production to SRBC was measured. […] NPT 15392, at the levels studied, produce a 46% increase in IgM production. Higher doses of NPT 15392 will cause less of an increase or decrease over control values. […] This is to be expected since NPT 15458 produces very high levels of NPT 15392 which are most likely inhibitory to IgM formation.
1. Mice are immunized as follows: sheep blood (sheep #23) is received weekly from Hyland Labs. It is aseptically collected in two volumes of Alseviers to one volume of blood.
2. Five-tenths ml of the sheep blood in Alseviers is washed three times in sterile PBS in an IEC clinical centrifuge, setting #4 (2800 rpm) for 10 min. at room temperature.
3. The pellet is resuspended in 1:10 in sterile PBS.
4. A model Z Coulter counter is calibrated according to Coulter Instruction Manual.
5. A […] dilution is needed for a Coulter counter cell count and is obtained by first making a 1:100 dilution in PBS and then diluting this solution 1:10 in isoton. The Coulter counter threshold is adjusted to setting #5.
6. The cell count is determined and the stock solution is diluted to 4×10^7 cells/ml. This final suspension is used for immunization.
7. Each mouse is immunized by i.v. injection into the lateral tail vein (warmed in a 50° C. water bath for veinous dilation) with 0.1 ml SRBC suspension; the final concentration of SRBC's is 4×10^6 per mouse.
1. Mice are treated by i.p. injection on days 0, 1, 2 and 3. A syringe (1 cc) is fitted with a one-half inch, 26 gauge needle. The needle is introduced at a 45° angle along the right side of the linea alba. A 0.2 ml volume is given to both drug and control treated groups.
2. Drug groups are given 0.2 ml of a desired concentration NPT 15392 solution which, for a 20 g mouse, is 5 μg/ml.
1. Spleens are removed aseptically and placed individually in Falcon #2025 tissue culture tubes containing 3 ml MEM. The tubes are then stored on ice.
2. Spleens are homogenized in the same tube with a teflon pestle attached to a G. K. Heller variable speed reversible motor connected with a G. K. Heller GT-21 motor controller setting #6.
3. The homogenization time and action should be uniform from sample to sample.
4. Samples are then filtered through a 100 mesh 40 micron stainless screen into a standard tissue culture tube. The screen is rinsed with 3 ml MEM and the cell suspension is stored on ice.
5. A 1:1000 dilution is made for a Coulter counter cell count and is obtained by first making a 1:100 dilution in PBS followed by a 1:10 dilution in isoton.
6. The cell count is obtained and the stock suspension is diluted to 1×10^7 cells/ml. The Coulter counter threshold is set at 10. Red cells are lysed with three drops of Zap isoton.
Agar plates are removed from regrigerator and allowed to warm to room temperature. They are labeled in triplicate for each experimental group.
2. Agar-filled tubes are removed from the water bath. One-tenth of the 10% SRBC's and 0.1 ml spleen cell suspension are added to each agar tube. The tubes are agitated on a Vortex mixer.
3. The contents of the tubes are poured immediately into agar base plates and swirled until a smooth layer is formed. The plates are placed on a level surface until the agar solidifies.
4. The plates are incubated at 37° C. in a humidified atmosphere of 5% CO2 and 95% air for 90 min.
5. Guinea pig complement (see preparation, section D) is removed from freezer, thawed at room temperature and diluted 1:10 in PBS.
6. Plates are removed from incubator and 1 ml of the diluted complement is added to each plate.
7. Plates are then incubated another 30-45 minutes at 37° C. Plates are then removed from incubator and counted using oblique light.
8. […]

L1210 (mouse) = assay: Inhibition of growth of L1210 mouse leukemia cells; format: cell-based; details: 10 μg/ml
Procedure: (§1) Effect of Erythro-9-(2-Acetoxy-3-Nonyl)-Hypoxanthine on Growth of Tumor (Leukemia) Cells In Vivo
The activity of one of these agents, NPT 15458 as inhibitors of the growth of abnormal lymphocytes has been determined. […] A 40% inhibition of L-1210 cells was effected by NPT 15458 at 10 μg/ml.

[4] = Blood levels after i.p. administration to mice; format: in vivo; details: for Convertible to NPT 15392, Biological: Mouse: Table 11 summary; for Blood Level of NPT 15458: i.p., 360 μm/kg of compound administered
Source text: This clearly establishes the fact that NPT 15458 and NPT 15457 can produce NPT 15392 in vivo and further at least one of these derivatives gives much higher blood levels allowing for greater activity.

8068 (Human) = assay: Inhibition of growth of 8068 human tumor (leukemia) cells; format: cell-based; details: 10 μg/ml
Source text: as §1

[5] = tested on: Vero Cells, Liver Homogenate, and Human Peripheral Blood Lymphocytes; assay: Conversion of pro-drugs to NPT 15392 by animal cells and tissues, stated in words; format: in vitro ADME; details: NPT 15458 compared with NPT 15457
[6] = Mus musculus, Lymphocyte, 10 ng/ml, read-out: D/C (S.I. drug / control)
[7] = Expt 1, 1.8 n moles/kg × 4 i.p., all p ≤ 0.01 vs placebo
[8] = Expt 1, 1.8 n moles/kg × 4 i.p., control 28 ± 2
[9] = Expt 2, .18 n moles/kg × 4 i.p., NPT 15392 and NPT 15458 p ≤ 0.01 vs placebo
[10] = Expt 2, .18 n moles/kg × 4 i.p., control 46 ± 2

SMILES | S.I. (stimulation index) (mouse spleen cells; 10 ng/ml) | Cpm Incorp. +PHA (mouse spleen cells; 10 ng/ml) | Cpm Incorp. -PHA (mouse spleen cells; 10 ng/ml) | fold induction at 0.01 µg/mL (mouse spleen cells; [6]) | degraded at 3.5 h, 360 µM ([2]; pH 1.0) | degraded at 3.5 h, 360 µM ([2]; pH 7.0) | degraded at 3.5 h, 360 µM ([2]; pH 9.5) | # IgM Plaques % of Control [3, 7] | # IgM Plaques (mean ± S.E.) [3, 8] | # IgM Plaques % of Control [3, 9] | # IgM Plaques (mean ± S.E.) [3, 10] | Immunomodulating (in vivo) IgM formation (in words) [3] | Immunomodulating (in vivo) SRPC-IgM, change ([3]; Table 11 summary) | Convertible to NPT 15392, Biological: Mouse [4] | Chemical stability (in words) [2] | Chemical conversion to NPT 15392 (in words) ([2]; pH 7.0) | Chemical conversion to NPT 15392 (in words) ([2]; pH 9.5) | other results
CCCCCC[C@H]([C@H](C)O)n1cnc2c(=O)[nH]cnc21 (relative stereo) [NPT 15392, erythro-9-(2-hydroxy-3-nonyl)-hypoxanthine, reference compound] | 588 | 68,804 Cpm | 117 Cpm | 1.25 | 100% | 100% | 100% | 146% | 41 ± 4 | 147% | 68 ± 2 | very effective in modulating the production of IgM antibodies and Yes | +46% | – | – | – | – | Previously demonstrated activity (in words) [1]: antiviral immunomodulating and anti-tumor activity; Increase in IgM production ([3]; at the levels studied): 46%
CCCCCC[C@H]([C@H](C)OC(C)=O)n1cnc2c(=O)[nH]cnc21 (relative stereo) [NPT 15458, erythro-9-(2-Acetoxy-3-Nonyl)-Hypoxanthine] | 436 | 66,800 Cpm | 153 Cpm | 0.93 | 8% | 0% | 28% | 28.5% | 8 ± 1 | 23.9% | 11 ± 1 | produces an inhibition of IgM formation and very effective in modulating the production of IgM antibodies and Yes | -72% | 100 | have stability | No | basic hydrolysis at pH 9.5 can convert and Yes | inhibition at 10 µg/mL (L1210 (mouse)): 40%; Blood Level of NPT 15458 ([4]; animal # 1): 0 μm/ml × 10^3; Blood Level of NPT 15458 ([4]; animal # 2): 0 μm/ml × 10^3; inhibition at 10 µg/mL (8068 (Human)): 32%; S.I. (stimulation index) (mouse spleen cells; 50 ng/ml): 589; Cpm Incorp. +PHA (mouse spleen cells; 50 ng/ml): 81,297 Cpm; Cpm Incorp. -PHA (mouse spleen cells; 50 ng/ml): 138 Cpm; fold induction at 0.05 µg/mL (mouse spleen cells; Mus musculus, Lymphocyte, 50 ng/ml, read-out: D/C (S.I. drug / control)): 1.25; activation at 50 µg/mL (mouse spleen cells; Mus musculus, Lymphocyte, 50 μg/ml, read-out: Increase of PHA induced lymphocyte proliferation): ~25%; Conversion to NPT 15392 (in words) [5]: appears to occur to a greater extent than the conversion of NPT 15457 to NPT 15392
CCCCCC[C@H]([C@H](C)OC(=O)CCC(=O)O)n1cnc2c(=O)[nH]cnc21 (relative stereo) [NPT 15457, Erythro-9-(2-Succinoxy-3-Nonyl) Hypoxanthine] | – | – | – | – | 2% | 0% | 8% | 68% | 19 ± 3 | 102% | 47 ± 3 | less than that of NPT 15458; also recorded: Moderate | – | 25 | have stability | No | basic hydrolysis at pH 9.5 can convert and Yes | Immunomodulating (in vivo) SRPC-IgM, range ([3]; Table 11 summary, unit not given): 0-60

From patent publication US4457919A, “Method of imparting immunomodulating, antiviral or antitumor activity” (Newport Pharmaceutical International, Inc., priority 1982, dated 1984)
